Where “and” joins values, the source holds several entries; their conditions need not be identical. Equal values may be shown once. Inconclusive results and toxic doses are left out.
Tested on: P388 leukemia ip, CD2F1 mice, survival T/C
Experiment: NCI In Vivo Anticancer Drug Screen. Data for tumor model P388 Leukemia (intraperitoneal) in CD2F1 (CDF1) mice
Conditions: endpoint: median survival time, higher = longer survival
In short: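 Mice carrying the transplanted tumor received test compound or vehicle. Survival was recorded in each group, and the value is the treated-group measurement divided by that of the vehicle-treated control group.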

[1] = dose: 25.0 mg/kg/injection, schedule: Q01DX009 (ip), vehicle: saline
[2] = dose: 50.0 mg/kg/injection, schedule: Q01DX009 (ip), vehicle: saline
[3] = dose: 100.0 mg/kg/injection, schedule: Q01DX009 (ip), vehicle: saline
[4] = dose: 25.0 mg/kg/injection, schedule: Q04DX002 (ip), vehicle: saline with Tween-80
[5] = dose: 50.0 mg/kg/injection, schedule: Q04DX002 (ip), vehicle: saline with Tween-80
[6] = dose: 100.0 mg/kg/injection, schedule: Q01DX009 (ip), vehicle: distilled water + Tween-80
[7] = dose: 200.0 mg/kg/injection, schedule: Q01DX009 (ip), vehicle: distilled water + Tween-80
[8] = dose: 50.0 mg/kg/injection, schedule: Q01DX009 (ip), vehicle: Klucel (hydroxypropylcellulose) (HPC)
[9] = dose: 100.0 mg/kg/injection, schedule: Q01DX009 (ip), vehicle: Klucel (hydroxypropylcellulose) (HPC)
[10] = dose: 200.0 mg/kg/injection, schedule: Q01DX009 (ip), vehicle: Klucel (hydroxypropylcellulose) (HPC)

## Cc1cccc(C(=O)CCN(C)C)c1
dose: 12.5 mg/kg/injection, schedule: Q01DX009 (ip), vehicle: saline
  T/C: 94 % of control
[1]
  T/C: 99 % of control
[2]
  T/C: 100 % of control and 101 % of control and 108 % of control
[3]
  T/C: 98 % of control

## CCO/C([O-])=C(/C(=N/S(=O)(=O)c1ccc(C)cc1)SC)[n+]1ccccc1
[4]
  T/C: 100 % of control
[5]
  T/C: 99 % of control
dose: 100.0 mg/kg/injection, schedule: Q04DX002 (ip), vehicle: saline with Tween-80
  T/C: 99 % of control

## CC(C)[C@](O)(C(=O)OCC1=CCN2CC[C@@H](O)[C@@H]12)[C@H](C)O
dose: 25.0 mg/kg/injection, schedule: Q01DX009 (ip), vehicle: water
  T/C: 105 % of control
dose: 50.0 mg/kg/injection, schedule: Q01DX009 (ip), vehicle: water
  T/C: 100 % of control and 104 % of control
[6]
  T/C: 103 % of control
[3]
  T/C: 97 % of control
dose: 100.0 mg/kg/injection, schedule: Q01DX009 (ip), vehicle: water
  T/C: 105 % of control and 107 % of control
[7]
  T/C: 112 % of control
dose: 200.0 mg/kg/injection, schedule: Q01DX009 (ip), vehicle: saline
  T/C: 114 % of control
dose: 200.0 mg/kg/injection, schedule: Q01DX009 (ip), vehicle: water
  T/C: 107 % of control and 113 % of control
dose: 400.0 mg/kg/injection, schedule: Q01DX009 (ip), vehicle: distilled water + Tween-80
  T/C: 113 % of control
dose: 400.0 mg/kg/injection, schedule: Q01DX009 (ip), vehicle: saline
  T/C: 112 % of control
dose: 800.0 mg/kg/injection, schedule: Q01DX009 (ip), vehicle: distilled water + Tween-80
  T/C: 103 % of control

## CCN(CC)C(=O)c1ccc2c(c1OCOC)CCC2
dose: 50.0 mg/kg/injection, schedule: Q01DX005 (ip), vehicle: saline with Tween-80
  T/C: 107 % of control
dose: 100.0 mg/kg/injection, schedule: Q01DX005 (ip), vehicle: saline with Tween-80
  T/C: 97 % of control
dose: 200.0 mg/kg/injection, schedule: Q01DX005 (ip), vehicle: saline with Tween-80
  T/C: 92 % of control

## CCCSc1nc2ccc(N=Cc3ccccc3O)cc2s1
[8]
  T/C: 97 % of control
[9]
  T/C: 90 % of control
[10]
  T/C: 90 % of control

## CCOC(=O)/C(=C\c1ccccc1)O/C(=C/c1ccccc1)C(=O)OCC
dose: 12.5 mg/kg/injection, schedule: Q04DX002 (ip), vehicle: saline with Tween-80
  T/C: 100 % of control
[4]
  T/C: 97 % of control
[5]
  T/C: 99 % of control

## Fc1ccc(NC(=S)Nc2ccccc2C(F)(F)F)cc1
[8]
  T/C: 92 % of control
[9]
  T/C: 92 % of control
[10]
  T/C: 100 % of control

## O=NN(CCF)C(=O)NC1CCCCC1
dose: 16.5 mg/kg/injection, schedule: Q04DX003 (ip), vehicle: saline with Tween-80
  T/C: 209 % of control
dose: 25.0 mg/kg/injection, schedule: Q04DX003 (ip), vehicle: saline with Tween-80
  T/C: 225 % of control

## O=[N+]([O-])/C=C/c1ccc(Cl)cc1Cl
dose: 20.0 mg/kg/injection, schedule: Q04DX003 (ip), vehicle: saline with Tween-80
  T/C: 118 % of control
dose: 40.0 mg/kg/injection, schedule: Q04DX003 (ip), vehicle: saline with Tween-80
  T/C: 118 % of control
dose: 80.0 mg/kg/injection, schedule: Q04DX003 (ip), vehicle: saline with Tween-80
  T/C: 118 % of control

## O=c1[nH]c2ccccc2c(=O)n1-c1cccs1
dose: 100.0 mg/kg/injection, schedule: Q04DX002 (ip), vehicle: saline
  T/C: 105 % of control
dose: 200.0 mg/kg/injection, schedule: Q04DX002 (ip), vehicle: saline
  T/C: 105 % of control
dose: 400.0 mg/kg/injection, schedule: Q04DX002 (ip), vehicle: saline
  T/C: 99 % of control

## NC1=C(O)C(=O)C(c2c3ccccc3cc3ccccc23)O1 (stereo not given)
dose: 60.0 mg/kg/injection, schedule: Q01DX005 (ip), vehicle: Klucel (hydroxypropylcellulose) (HPC)
  T/C: 94 % of control
dose: 120.0 mg/kg/injection, schedule: Q01DX005 (ip), vehicle: Klucel (hydroxypropylcellulose) (HPC)
  T/C: 108 % of control
dose: 240.0 mg/kg/injection, schedule: Q01DX005 (ip), vehicle: Klucel (hydroxypropylcellulose) (HPC)
  T/C: 86 % of control

## CCOC(=O)Cc1nnc(N)s1
dose: 50.0 mg/kg/injection, schedule: Q04DX003 (ip), vehicle: saline
  T/C: 94 % of control
dose: 100.0 mg/kg/injection, schedule: Q04DX003 (ip), vehicle: saline
  T/C: 95 % of control
dose: 200.0 mg/kg/injection, schedule: Q04DX003 (ip), vehicle: saline
  T/C: 110 % of control
dose: 400.0 mg/kg/injection, schedule: Q04DX003 (ip), vehicle: saline
  T/C: 104 % of control

## NC(=S)N/N=C/c1ncccc1O
[1]
  T/C: 158 % of control
dose: 50.0 mg/kg/injection, schedule: Q01DX005 (ip), vehicle: saline
  T/C: 155 % of control
[2]
  T/C: 151 % of control and 158 % of control
dose: 100.0 mg/kg/injection, schedule: Q01DX005 (ip), vehicle: saline
  T/C: 162 % of control
dose: 100.0 mg/kg/injection, schedule: Q01DX005 (ip), vehicle: suspension in saline
  T/C: 167 % of control
[3]
  T/C: 180 % of control
dose: 200.0 mg/kg/injection, schedule: Q01DX005 (ip), vehicle: saline
  T/C: 157 % of control
dose: 200.0 mg/kg/injection, schedule: Q01DX005 (ip), vehicle: suspension in saline
  T/C: 90 % of control

## CC1=C(I)C2(CCCCC2)OC1=O
dose: 100.0 mg/kg/injection, schedule: Q01DX001 (ip), vehicle: saline with Tween-80
  T/C: 101 % of control
dose: 200.0 mg/kg/injection, schedule: Q01DX001 (ip), vehicle: saline with Tween-80
  T/C: 94 % of control
dose: 400.0 mg/kg/injection, schedule: Q01DX001 (ip), vehicle: saline with Tween-80
  T/C: 93 % of control

## CCC[CH2][Sn]1([CH2]CCC)[O]OC(c2ccccc2)[O]1 (stereo not given)
dose: 4.5 mg/kg/injection, schedule: Q01DX009 (ip), vehicle: other
  T/C: 150 % of control
dose: 625.0 micrograms/kg/injection, schedule: Q04DX003 (ip), vehicle: saline with Tween-80
  T/C: 115 % of control
dose: 1250.0 micrograms/kg/injection, schedule: Q04DX003 (ip), vehicle: saline with Tween-80
  T/C: 120 % of control
dose: 5000.0 micrograms/kg/injection, schedule: Q04DX003 (ip), vehicle: saline with Tween-80
  T/C: 165 % of control

## CC(C)(C)[Si](C)(C)ONC(N)=O
dose: 12.5 mg/kg/injection, schedule: Q01DX009 (ip), vehicle: distilled water + Tween-80
  T/C: 99 % of control
dose: 25.0 mg/kg/injection, schedule: Q01DX009 (ip), vehicle: distilled water + Tween-80
  T/C: 94 % of control
dose: 50.0 mg/kg/injection, schedule: Q01DX009 (ip), vehicle: distilled water + Tween-80
  T/C: 93 % of control
[6]
  T/C: 88 % of control
[7]
  T/C: 90 % of control

## COC1/C=C/OC2(C)Oc3c(C)c(O)c4c(O)c(c(/C=N/N(C)c5nc6c(N)ncnc6n5C5OC(CO)C(O)C5O)c(O)c4c3C2=O)NC(=O)C(C)=C/C=C/C(C)C(O)C(C)C(O)C(C)C(OC(C)=O)C1C (stereo not given)
dose: 50.0 mg/kg/injection, schedule: Q01DX009 (ip), vehicle: saline with Tween-80
  T/C: 101 % of control
dose: 100.0 mg/kg/injection, schedule: Q01DX009 (ip), vehicle: saline with Tween-80
  T/C: 97 % of control
dose: 200.0 mg/kg/injection, schedule: Q01DX009 (ip), vehicle: saline with Tween-80
  T/C: 101 % of control

## CC(=O)c1cc(C(=O)O)c(O)c2ccccc12
[8]
  T/C: 90 % of control
[9]
  T/C: 92 % of control

## CC1(C)OC(=O)NC1c1ccccc1 (stereo not given)
dose: 6.25 mg/kg/injection, schedule: Q01DX009 (ip), vehicle: saline with Tween-80
  T/C: 100 % of control
dose: 12.5 mg/kg/injection, schedule: Q01DX009 (ip), vehicle: saline with Tween-80
  T/C: 99 % of control
dose: 25.0 mg/kg/injection, schedule: Q01DX009 (ip), vehicle: saline with Tween-80
  T/C: 117 % of control

## COc1oc(C2C/C(=C/C(C)=C/C(C)=C/C(C)=C/c3ccc([N+](=O)[O-])cc3)CO2)c(C)c(=O)c1C (stereo not given)
dose: 0.25 mg/kg/injection, schedule: Q01DX005 (ip), vehicle: saline
  T/C: 116 % of control
dose: 0.5 mg/kg/injection, schedule: Q01DX005 (ip), vehicle: saline
  T/C: 107 % of control
dose: 1.0 mg/kg/injection, schedule: Q01DX005 (ip), vehicle: saline
  T/C: 113 % of control
dose: 2.0 mg/kg/injection, schedule: Q01DX005 (ip), vehicle: saline
  T/C: 121 % of control

## COC1(OC)CC(CCl)OC1(OC)OC (stereo not given)
dose: 60.0 mg/kg/injection, schedule: Q01DX005 (ip), vehicle: saline
  T/C: 103 % of control
dose: 120.0 mg/kg/injection, schedule: Q01DX005 (ip), vehicle: saline
  T/C: 103 % of control
dose: 240.0 mg/kg/injection, schedule: Q01DX005 (ip), vehicle: saline
  T/C: 101 % of control

— PubChem BioAssay AID330 (DTP/NCI, 2004)
